Usually EC50 stands for the concentration at which the effect is half-maximal. A lower EC50 goes with a more potent agent.

The target of this experiment is human 5-HT2C receptor (Homo sapiens, UniProt P28335, I156V/I160V/N158S). Briefly: cell-based.
Sequence of human 5-HT2C receptor (P28335 33-458 I156V/N158S/I160V limits assumed): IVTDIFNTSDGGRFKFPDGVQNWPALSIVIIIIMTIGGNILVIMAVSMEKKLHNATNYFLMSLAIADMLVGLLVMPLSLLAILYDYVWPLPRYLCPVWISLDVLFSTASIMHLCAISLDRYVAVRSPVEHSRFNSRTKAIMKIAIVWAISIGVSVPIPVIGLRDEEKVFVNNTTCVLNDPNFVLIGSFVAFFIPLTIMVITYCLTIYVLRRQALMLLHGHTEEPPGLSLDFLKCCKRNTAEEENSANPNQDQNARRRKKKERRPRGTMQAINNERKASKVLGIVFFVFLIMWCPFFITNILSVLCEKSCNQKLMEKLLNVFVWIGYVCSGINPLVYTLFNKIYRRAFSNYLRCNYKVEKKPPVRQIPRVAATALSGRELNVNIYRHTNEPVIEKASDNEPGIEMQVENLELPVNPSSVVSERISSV
In turn, `CCCCN1CCN(C(=O)C2CN(c3c4c(nc5ccnn35)CCNCC4)C2)CC1` [Example 37.25] gave an EC50 of 3 nM.
The molecule `CC(=O)NC1CCN(C(=O)C2CN(c3c4c(nc5ccnn35)CCN(C)CC4)C2)CC1` [Example 36.28] displayed an EC50 of 380 nM.
The result for `COc1cccc(N(C)C(=O)C2CN(c3c4c(nc5ccnn35)CCNCC4)C2)c1` [Example 31.55] reads 600 nM.
The result for `c1cc2c3c(cccc3c1)CN(c1c3c(nc4ccnn14)CCNCC3)C2` [Example 1.50] reads 924 nM.
The figure for `CC(C)N(C)C(=O)C1CN(c2c3c(nc4ccnn24)CCNCC3)C1` [Example 31.6] is 5940 nM; for `O=C(C1CN(c2c3c(nc4ccnn24)CCNCC3)C1)N1CCC2CC2(c2ccccc2)C1` (centres unmarked) [Example 31.233] it is 106 nM.
`Cc1cnn2c(N3CC(C(=O)N(C)Cc4ccc(OC(F)F)cc4)C3)c3c(nc12)CCNCC3` [Example 31.249] showed an EC50 of 16 nM.
The result for `C[C@H](NC(=O)C1CN(c2c3c(nc4ccnn24)CCNCC3)C1)C1CCCCC1` [Example 31.189] reads 315 nM; that for `CCN1CCN(C(=O)C2CN(c3c4c(nc5ccnn35)CCN(C)CC4)C2)CC1` [Example 36.1, (4-Ethyl-piperazin-1-yl)-[1-(7-methyl-6,7,8,9-tetrahydro-5H-1,4,7,10a-tetraaza-cyclohepta[f]inden-10-yl)-azetidin-3-yl]-methanone], 69 nM.
The result for `O=C(C1CN(c2c3c(nc4c(Br)cnn24)CCNCC3)C1)N1CCC2(CCCCC2)CC1` [Example 31.132] reads 254 nM.
The result for `CN(Cc1ccccc1)C(=O)C1CN(c2c3c(nc4ccnn24)CCNCC3)C1` [Example 31.19] reads 50 nM.
In turn, `O=C(C1CN(c2c3c(nc4ccnn24)CCNCC3)C1)N1CC=C(c2ccccc2)CC1` [Example 31.181] had an EC50 of 84 nM.
For `O=C(NCCC(F)(F)F)C1CN(c2c3c(nc4ccnn24)CCNCC3)C1` [Example 37.63], the midpoint of the response, the EC50, lay at 84 nM.
The figure for `CS(=O)(=O)N1CCN(C(=O)C2CN(c3c4c(nc5ccnn35)CCNCC4)C2)CC1` [Example 37.45] is 2 nM.
Regarding `Cc1cc(OC2CN(c3c4c(nc5ccnn35)CCNCC4)C2)cc(C)n1` [Example 35.23], a half-maximal response (EC50) required 105 nM.
For `COc1cccc(OC2CN(c3c4c(nc5ccnn35)CCNCC4)C2)c1` [Example 35.47], the EC50 is 66 nM.
With `Cc1ncccc1OC1CN(c2c3c(nc4ccnn24)CCNCC3)C1` [Example 35.24], the EC50 was 120 nM.
The result for `CN(Cc1ccc(F)cc1)C(=O)C1CN(c2c3c(nc4ccnn24)CCNCC3)C1` [Example 31.96] reads 26 nM; that for `C#CC1CCN(C(=O)C2CN(c3c4c(nc5ccnn35)CCN(C)CC4)C2)C1` (centres unmarked) [Example 39, (3-Ethynyl-pyrrolidin-1-yl)-[1-(7-methyl-6,7,8,9-tetrahydro-5H-1,4,7,10a-tetraaza-cyclohept[f]inden-10-yl)-azetidin-3-yl]-methanone], 78 nM; that for `O=C(C1CCCN(c2c3c(nc4ccnn24)CCNCC3)C1)N1CCC(C2CCCCC2)CC1` (centres unmarked) [Example 1.58], 4710 nM.
In the case of `O=C(C1CN(c2c3c(nc4ccnn24)CCNCC3)C1)N1CCC(c2cccc(F)c2)C1` (centres unmarked) [Example 31.118], the EC50 came to 11 nM.
The figure for `c1nn2c(N3CCC3)c3c(nc2c1CCC1CC1)CCNCC3` [Example 6.1] is 365 nM; for `CN1CCc2nc3ccnn3c(N3CC(C(=O)N4CC(N(C)C)C4)C3)c2CC1` [Example 36.48] it is 269 nM; for `CN(CC1CC1)C(=O)C1CN(c2c3c(nc4ccnn24)CCNCC3)C1` [Example 31.97] it is 156 nM.
In turn, `Brc1cnn2c(N3CCC3)c3c(nc12)CCNCC3` [Example 2, 10-Azetidin-1-yl-3-bromo-6,7,8,9-tetrahydro-5H-1,4,7,10a-tetraaza-cyclohepta[f]indene] gave an EC50 of 4 nM.
For `Clc1ccccc1OC1CCN(c2c3c(nc4ccnn24)CCNCC3)CC1` [Example 1.55], the EC50 came out at 2780 nM.

The values are drawn from patent US20120165304A1, “6,7,8,9-Tetrahydro-5H-1,4,7,10a-tetraaza-cyclohept[f]indene derivatives, pharmaceutical compositions containing these compounds, their use and processes for preparing them” (BOEHRINGER INGELHEIM INTERNATIONAL GMBH, priority 2008, published 2012).
